Experimental data as given in patent publication US20240285634A1, “COMPOUND AND METHOD FOR TREATING CHEMOTHERAPY-ASSOCIATED GASTROINTESTINAL SIDE EFFECTS” (ONQUALITY PHARMACEUTICALS CHINA LTD., priority 2021, published 2024).

Key:
[1] = tested on: Chemotherapeutic agent-caused constipation models of Balb/c mice; assay: Relieving effect on constipation caused by a chemotherapeutic agent (Examples 202-364); type: in vivo
Text: Construction of mouse animal models: Chemotherapeutic agent-caused constipation models of Balb/c mice were constructed according to the administration mode and frequency of the chemotherapeutic agent as shown in Table 4. […] Thus, chemotherapeutic agent-caused constipation models of mice are very good models to mimic constipation caused by the chemotherapeutic agent.
Balb/c mice were fed for 1 week, and then divided into groups. The experiment was divided into a control group, a chemotherapeutic agent group, and a group of the compound as shown in Formula I, each of which comprised 10 mice, to perform the administration experiment, for which the administration dosage, mode, time and frequency were shown in Table 4. The control group: being injected or intragastrically administered with the same solvent as that used in the group of the compound as shown in Formula I (the administration mode and time were shown in Table 4), and then being injected or intragastrically administered with the same solvent as that used in the chemotherapeutic agent group (the administration mode was shown in Table 4); the chemotherapeutic agent group: being injected or intragastrically administered with the same solvent as that used in the group of the compound as shown in Formula I (the administration mode and time was shown in Table 4), and then being injected or intragastrically administered with the chemotherapeutic agent (the type, administration mode and dosage were shown in Table 4); the group of the compound as shown in Formula I: being injected or intragastrically administered with the compound as shown in Formula I (the administration mode and time was shown in Table 4), and then being administered with the chemotherapeutic agent (the administration mode and dosage were shown in Table 4).
The feces reduction rate was calculated with reference to the method of Ji Eun Kim (Lab Anim Res. 2016 December; 32(4): 231-240.). Feces reduction rate (%)=(the control group−the chemotherapeutic agent group or the group of the compound as shown in Formula I)/the control group*100%
It is regarded as effective remission when the feces reduction rate of mice in the group of the compound as shown in Formula I is reduced compared with that in the chemotherapeutic agent group.
The feces amount of mice within 3 hours was observed and recorded every day. At the end of the experiment, the number of mice in the group of the compound as shown in Formula I whose feces reduction rate was lower than that of mice in the chemotherapeutic agent group was recorded. Table 4 lists various animal experiment combinations of chemotherapeutic agents and the compound as shown in Formula I, as well as the corresponding experimental results.

[2] = tested on: Balb/c mice, diarrhea caused by continuous administration of a chemotherapeutic agent; assay: Relieving effect on diarrhea caused by the continuous administration of a chemotherapeutic agent (Examples 365-384); type: in vivo
Text: Balb/c mice were fed for 1 week, and then divided into groups. The experiment was divided into a control group, a chemotherapeutic agent group, and a group of the compound as shown in Formula I, each of which comprised 10 mice, to perform the administration experiment, for which the administration dosage, mode, time and frequency were shown in Table 5. The control group: being injected or intragastrically administered with the same solvent as that used in the group of the compound as shown in Formula I (the administration mode and time were shown in Table 5), and then being injected or intragastrically administered with the same solvent as that used in the chemotherapeutic agent group (the administration mode was shown in Table 5); the chemotherapeutic agent group: being injected or intragastrically administered with the same solvent as that used in the group of the compound as shown in Formula I (the administration mode and time were shown in Table 5), and then being injected or intragastrically administered with the chemotherapeutic agent (the type, administration mode, time and dosage were shown in Table 5); the group of the compound as shown in Formula I: being injected or intragastrically administered with the compound as shown in Formula I (the administration mode and time were shown in Table 5), and then being administered with the chemotherapeutic agent (the type, administration mode, time and dosage were shown in Table 5).
The scoring of diarrhea can refer to the method of Akinobu Kurita (Cancer Chemother Pharmacol 2000; 46:211-20.), Grade 0): normal feces; Grade 1: mild diarrhea, the stools is slightly wet and soft; Grade 2: moderate diarrhea, loose stools and mild perianal contamination; Grade 3: severe diarrhea, watery stools and accompanied by severe perianal staining (see FIG. 1). It is regarded as effective remission when the diarrhea grading of mice in the group of the compound as shown in Formula I is reduced compared with the average diarrhea grading of mice in the chemotherapeutic agent group.
The diarrhea grading of mice was observed and recorded every day. At the end of the experiment, the number of mice in the group of the compound as shown in Formula I whose diarrhea grading was lower than that of mice in the chemotherapeutic agent group was recorded. Table 5 lists various animal experiment combinations of chemotherapeutic agents and the compound as shown in Formula I, as well as the corresponding experimental results. (Relative remission rate %=the number of mice in the group of the compound as shown in Formula I whose diarrhea has been effectively relieved/the total number of mice in the group of the compound as shown in Formula I*100%. The establishment rate of diarrhea model in the chemotherapeutic agent group was 50%-80%, that is, about 5-8 of 10 mice developed diarrhea during the experiment, and there were cases of individual mice death or not developing diarrhea.)

## CN1CCN(c2ccc(Nc3ncc4cc5n(c4n3)C3(CCCCC3)CNC5=O)nc2)CC1 [Compound I, Trilaciclib]
[1]; Example 335, Fluorouracil 100 (F), oxaliplatin 5 (O), irinotecan 100 (I) and tetrahydrofolic acid 100 (L) mg/kg intravenous injection single, compound intravenous injection 100 mg/kg single, 10 h before chemotherapeutic agent, cycle 8 days
  Relative remission rate (%): 60%
[1]; Example 336, Fluorouracil 100 (F), oxaliplatin 5 (O), irinotecan 100 (I) and tetrahydrofolic acid 100 (L) mg/kg intravenous injection single, compound intravenous injection 100 mg/kg single, 12 h before chemotherapeutic agent, cycle 8 days
  Relative remission rate (%): 60%
[1]; Example 337, Fluorouracil 100 (F), oxaliplatin 5 (O), irinotecan 100 (I) and tetrahydrofolic acid 100 (L) mg/kg intravenous injection single, compound intravenous injection 100 mg/kg single, 14 h before chemotherapeutic agent, cycle 8 days
  Relative remission rate (%): 40%
[1]; Example 338, Fluorouracil 100 (F), oxaliplatin 5 (O), irinotecan 100 (I) and tetrahydrofolic acid 100 (L) mg/kg intravenous injection single, compound intravenous injection 100 mg/kg single, 16 h before chemotherapeutic agent, cycle 8 days
  Relative remission rate (%): 40%
[1]; Example 339, Fluorouracil 100 (F), oxaliplatin 5 (O), irinotecan 100 (I) and tetrahydrofolic acid 100 (L) mg/kg intravenous injection single, compound intravenous injection 100 mg/kg single, 18 h before chemotherapeutic agent, cycle 8 days
  Relative remission rate (%): 40%
[1]; Example 340, Fluorouracil 100 (F), oxaliplatin 5 (O), irinotecan 100 (I) and tetrahydrofolic acid 100 (L) mg/kg intravenous injection single, compound intravenous injection 100 mg/kg single, 20 h before chemotherapeutic agent, cycle 8 days
  Relative remission rate (%): 30%
[1]; Example 341, Fluorouracil 100 (F), oxaliplatin 5 (O), irinotecan 100 (I) and tetrahydrofolic acid 100 (L) mg/kg intravenous injection single, compound intravenous injection 100 mg/kg single, 24 h before chemotherapeutic agent, cycle 8 days
  Relative remission rate (%): 30%
[1]; Example 342, Fluorouracil 100 (F), oxaliplatin 5 (O), irinotecan 100 (I) and tetrahydrofolic acid 100 (L) mg/kg intravenous injection single, compound intravenous injection 100 mg/kg single, 48 h before chemotherapeutic agent, cycle 8 days
  Relative remission rate (%): 0%
[1]; Example 345, Fluorouracil 100 (F), oxaliplatin 5 (O), irinotecan 100 (I) and tetrahydrofolic acid 100 (L) mg/kg intraperitoneal injection single, compound oral administration 100 mg/kg single, 6 h before chemotherapeutic agent, cycle 7 days
  Relative remission rate (%): 60%
[1]; Example 346, Fluorouracil 100 (F), oxaliplatin 5 (O), irinotecan 100 (I) and tetrahydrofolic acid 100 (L) mg/kg intraperitoneal injection single, compound oral administration 100 mg/kg single, 24 h before chemotherapeutic agent, cycle 7 days
  Relative remission rate (%): 40%
[1]; Example 355, Fluorouracil 100 (F), oxaliplatin 5 (O), irinotecan 200 (I) and tetrahydrofolic acid 100 (L) mg/kg oral administration single, compound subcutaneous injection 100 mg/kg single, 0.5 h before chemotherapeutic agent, cycle 7 days
  Relative remission rate (%): 50%
[1]; Example 356, Fluorouracil 100 (F), oxaliplatin 5 (O), irinotecan 200 (I) and tetrahydrofolic acid 100 (L) mg/kg oral administration single, compound subcutaneous injection 100 mg/kg single, 4 h before chemotherapeutic agent, cycle 7 days
  Relative remission rate (%): 50%
[1]; Example 360, Gemcitabine (GEM) intravenous injection 120 mg/kg single, compound oral administration 100 mg/kg single, 24 h before chemotherapeutic agent, cycle 8 days
  Relative remission rate (%): 30%
[1]; administered before the chemotherapeutic agent, Table 4 and FIG. 4
  feces reduction rates compared with the chemotherapeutic agent group: reduced to different degrees
[2]; Example 365, Fluorouracil (5-Fu) intraperitoneal injection 70 mg/kg once a day, for 3 days, compound intravenous injection 100 mg/kg once a day, for 3 days, 2 h before chemotherapeutic agent, cycle 10 days
  Relative remission rate (%): 60%
[2]; Example 366, Fluorouracil (5-Fu) intraperitoneal injection 70 mg/kg once a day, for 3 days, compound intravenous injection 100 mg/kg once a day, for 3 days, 4 h before chemotherapeutic agent, cycle 10 days
  Relative remission rate (%): 40%
[2]; Example 367, Fluorouracil (5-Fu) intraperitoneal injection 70 mg/kg once a day, for 3 days, compound intravenous injection 100 mg/kg once a day, for 3 days, 6 h before chemotherapeutic agent, cycle 10 days
  Relative remission rate (%): 30%
[2]; Example 368, Fluorouracil (5-Fu) intraperitoneal injection 70 mg/kg once a day, for 3 days, compound intravenous injection 100 mg/kg once a day, for 3 days, 8 h before chemotherapeutic agent, cycle 10 days
  Relative remission rate (%): 20%
[2]; Example 369, Fluorouracil (5-Fu) intraperitoneal injection 70 mg/kg once a day, for 5 days, compound intraperitoneal injection 100 mg/kg once a day, for 5 days, 2 h before chemotherapeutic agent, cycle 9 days
  Relative remission rate (%): 50%
[2]; Example 370, Fluorouracil (5-Fu) intraperitoneal injection 70 mg/kg once a day, for 5 days, compound intraperitoneal injection 100 mg/kg once a day, for 5 days, 4 h before chemotherapeutic agent, cycle 9 days
  Relative remission rate (%): 30%
[2]; Example 371, Fluorouracil (5-Fu) intraperitoneal injection 70 mg/kg once a day, for 5 days, compound intraperitoneal injection 100 mg/kg once a day, for 5 days, 6 h before chemotherapeutic agent, cycle 9 days
  Relative remission rate (%): 20%
[2]; Example 372, Fluorouracil (5-Fu) intraperitoneal injection 70 mg/kg once a day, for 5 days, compound intraperitoneal injection 100 mg/kg once a day, for 5 days, 8 h before chemotherapeutic agent, cycle 9 days
  Relative remission rate (%): 10%
[2]; Example 376, Fluorouracil (5-Fu) intraperitoneal injection 70 mg/kg once a day, for 7 days, compound intraperitoneal injection 125 mg/kg once a day, for 7 days, 2 h before chemotherapeutic agent, cycle 10 days
  Relative remission rate (%): 10%
[2]; Example 383, Fluorouracil (5-Fu) intravenous injection 70 mg/kg once a day for 3 days, compound oral administration 100 mg/kg once a day, for 3 days, 6 h before chemotherapeutic agent, cycle 8 days
  Relative remission rate (%): 50%
[2]; Example 384, Fluorouracil (5-Fu) oral administration 50 mg/kg once a day, for 14 days, compound intraperitoneal injection 100 mg/kg once a day, for 14 days, 8 h before chemotherapeutic agent, cycle 14 days
  Relative remission rate (%): Ineffective
[2]; continuous administration of fluorouracil for 14 days
  relieving effect on diarrhea: ineffective
[2]; continuous administration of the chemotherapeutic agent for 7 days or less
  relieving effects on diarrhea: have relieving effects
[2]; continuous administration of the chemotherapeutic agent for less than 7 days
  relieving effects on diarrhea: significant
